The source made the active and inactive calls.
Experiments:
[1] = biological target: Potassium channel subfamily K member 9 (Homo sapiens, UniProt Q9NPC2); assay: TASK3 (KCNK9) channel inhibitors, thallium flux, SAR follow-up, selectivity assay for TASK1 inhibitor project, cell-based, FluxOR thallium flux, concentration-response (AID 652211); type: functional;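 further: potency is for inhibitors of the channel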
[2] = biological target: Potassium channel subfamily K member 3 (Homo sapiens, UniProt O14649); assay: TASK1 (KCNK3) potassium channel inhibitors, SAR follow-up, CHO cells, FluxOR thallium flux (AID 652212); type: functional
Sequence of Potassium channel subfamily K member 3 (O14649 whole entry): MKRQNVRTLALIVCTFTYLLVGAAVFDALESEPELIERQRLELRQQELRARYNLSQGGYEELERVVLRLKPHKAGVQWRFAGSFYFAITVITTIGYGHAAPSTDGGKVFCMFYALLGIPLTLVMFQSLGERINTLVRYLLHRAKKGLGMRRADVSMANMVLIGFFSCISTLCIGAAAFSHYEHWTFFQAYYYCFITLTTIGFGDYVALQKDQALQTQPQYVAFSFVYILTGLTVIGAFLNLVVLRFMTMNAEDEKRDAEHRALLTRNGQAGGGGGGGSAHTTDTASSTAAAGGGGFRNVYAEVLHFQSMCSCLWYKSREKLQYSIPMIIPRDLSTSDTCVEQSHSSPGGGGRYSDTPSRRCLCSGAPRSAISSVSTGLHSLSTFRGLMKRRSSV

[3] = human group III sPLA2 inhibitors, dose response, biochemical, QFRET, IC50 (AID 743457);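 further: green fluorescence rise as the enzyme cleaves BODIPY PC-A2 in liposomes; potency for inhibition of the enzyme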
[4] = biological target: Intestinal-type alkaline phosphatase (Homo sapiens, UniProt P09923); assay: human intestinal alkaline phosphatase activators, dose response, biochemical, luminescence, uHTS hits (AID 463120); type: functional
Sequence of Intestinal-type alkaline phosphatase (P09923 whole entry): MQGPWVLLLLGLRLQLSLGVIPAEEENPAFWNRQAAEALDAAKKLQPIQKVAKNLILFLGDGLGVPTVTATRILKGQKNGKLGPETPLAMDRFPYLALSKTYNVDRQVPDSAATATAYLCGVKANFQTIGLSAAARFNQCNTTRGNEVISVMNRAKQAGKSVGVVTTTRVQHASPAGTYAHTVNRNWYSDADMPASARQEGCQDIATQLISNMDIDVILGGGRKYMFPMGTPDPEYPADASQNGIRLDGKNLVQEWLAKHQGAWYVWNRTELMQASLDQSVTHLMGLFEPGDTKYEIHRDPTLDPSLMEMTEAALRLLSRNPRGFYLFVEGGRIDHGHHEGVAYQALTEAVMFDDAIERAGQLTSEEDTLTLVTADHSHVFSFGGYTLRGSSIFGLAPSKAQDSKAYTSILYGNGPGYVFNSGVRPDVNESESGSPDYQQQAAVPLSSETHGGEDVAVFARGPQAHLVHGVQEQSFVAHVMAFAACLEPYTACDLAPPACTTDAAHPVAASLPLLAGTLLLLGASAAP

[5] = biological target: T1, Ubiquitin-conjugating enzyme E2 N (Homo sapiens, UniProt P61088); type: functional;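 further: Dose-response confirmation in a TR-FRET assay detecting UBC13-driven polyubiquitin chain formation, inhibition measured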
T1 sequence (P61088 whole entry): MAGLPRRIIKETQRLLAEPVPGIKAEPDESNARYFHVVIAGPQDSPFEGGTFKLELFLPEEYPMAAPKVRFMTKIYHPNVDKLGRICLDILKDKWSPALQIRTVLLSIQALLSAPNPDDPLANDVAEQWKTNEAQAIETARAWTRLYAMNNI

[6] = biological target: T2, NAD-dependent protein deacylase sirtuin-5, mitochondrial (Homo sapiens, UniProt Q9NXA8); assay: SIRT5 deacylase inhibitors, dose response, biochemical, fluorescence imaging, cherry-pick, set 6 (AID 720597)
T2 sequence (Q9NXA8 whole entry): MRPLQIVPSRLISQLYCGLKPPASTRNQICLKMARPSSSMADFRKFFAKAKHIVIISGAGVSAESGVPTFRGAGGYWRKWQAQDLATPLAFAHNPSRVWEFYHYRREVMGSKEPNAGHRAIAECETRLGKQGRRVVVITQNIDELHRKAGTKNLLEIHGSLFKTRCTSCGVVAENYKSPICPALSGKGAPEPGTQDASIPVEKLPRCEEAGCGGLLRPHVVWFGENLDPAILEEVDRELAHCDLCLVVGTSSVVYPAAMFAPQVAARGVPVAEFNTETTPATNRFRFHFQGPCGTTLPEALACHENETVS

Kallikrein-7 = Kallikrein-7 (Homo sapiens, UniProt P49862); assay: Fluorescence Intensity-based biochemical primary high throughput dose response assay to identify activators of kallikrein-7 (K7) zymogen.
[7] = biological target: Botulinum neurotoxin type F (Clostridium botulinum, UniProt P30996); assay: High-throughput multiplex microsphere dose response for inhibitors of toxin protease, specifically Botulinum neurotoxin light chain F protease, compounds from Cherry Pick 02.; type: functional; conditions: read-out: EC50_MICROM
Sequence of Botulinum neurotoxin type F (P30996 1-436 limits assumed): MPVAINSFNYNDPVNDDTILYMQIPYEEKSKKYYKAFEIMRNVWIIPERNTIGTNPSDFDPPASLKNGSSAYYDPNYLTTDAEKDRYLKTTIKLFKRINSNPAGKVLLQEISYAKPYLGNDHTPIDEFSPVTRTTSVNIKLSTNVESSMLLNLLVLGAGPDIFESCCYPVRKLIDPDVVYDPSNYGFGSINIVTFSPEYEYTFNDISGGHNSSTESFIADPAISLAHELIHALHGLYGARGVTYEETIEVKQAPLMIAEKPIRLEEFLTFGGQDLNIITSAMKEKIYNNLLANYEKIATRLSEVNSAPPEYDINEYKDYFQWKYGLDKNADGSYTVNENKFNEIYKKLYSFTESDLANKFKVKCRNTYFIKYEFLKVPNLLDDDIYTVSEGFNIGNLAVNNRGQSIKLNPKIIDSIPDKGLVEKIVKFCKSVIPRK

[8] = biological target: Protein disulfide-isomerase (Homo sapiens, UniProt P07237); assay: PDI inhibitors, insulin turbidity readout, confirmation, biochemical, dry powder samples, set 2 (AID 652146)
Sequence of Protein disulfide-isomerase (P07237 whole entry): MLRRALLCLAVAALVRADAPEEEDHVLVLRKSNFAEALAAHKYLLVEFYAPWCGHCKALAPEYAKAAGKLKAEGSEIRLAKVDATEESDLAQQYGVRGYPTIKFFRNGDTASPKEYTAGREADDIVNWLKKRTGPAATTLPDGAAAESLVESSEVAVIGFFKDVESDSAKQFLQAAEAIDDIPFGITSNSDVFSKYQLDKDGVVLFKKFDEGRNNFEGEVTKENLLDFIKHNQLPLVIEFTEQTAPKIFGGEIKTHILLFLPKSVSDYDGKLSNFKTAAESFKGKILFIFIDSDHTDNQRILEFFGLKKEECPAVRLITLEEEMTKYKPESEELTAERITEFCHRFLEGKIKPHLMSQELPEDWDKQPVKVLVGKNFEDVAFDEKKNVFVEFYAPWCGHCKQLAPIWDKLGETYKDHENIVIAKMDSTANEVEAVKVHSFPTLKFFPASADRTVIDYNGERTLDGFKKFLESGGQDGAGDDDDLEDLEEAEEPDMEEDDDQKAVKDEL

[9] = HepG2 cell cytotoxicity, dose response, cytotoxicity control, ATP luminescence, dry powder (AID 652118); type: functional, cell-based
Vero = assay: Vero cell toxicity, dose response, cytotoxicity control, plate reader, cherry-pick samples (AID 687020); type: functional, cell-based; conditions: Chlorocebus sabaeus
[10] = off-target signal loss in HeLa-CEM21 co-culture – HeLa F-luc CTL cells, cherry-picked, counter-screen for HIV-1 Env fusion inhibitor project, dose response (AID 652040); type: functional, cell-based;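 further: potency for signal decrease marking cytotoxic or nonspecific inhibition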
[11] = CEM21 lymphoblast cell cytotoxicity, dose response, cytotoxicity control for viral fusion inhibitor project, CellTiter-Glo luminescence, cherry-picked (AID 652042); type: functional, cell-based;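 further: potency for signal decrease meaning cytotoxicity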
HeLa = assay: HeLa cell cytotoxicity, dose response, cytotoxicity control, ATP luminescence, cherry-pick samples (AID 687004); type: functional, cell-based; conditions: Homo sapiens
HepG2 = assay: HepG2 cell cytotoxicity, dose response, cytotoxicity control, cherry-picks, set 2 (AID 687002); type: functional, cell-based; conditions: Homo sapiens
[12] = biological target: T2, NAD-dependent protein deacylase sirtuin-5, mitochondrial; assay: SIRT5 desuccinylase inhibitors, dose response, biochemical, fluorescence imaging, cherry-pick, set 5 (AID 720591);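 further: desuccinylation of succinyl peptide AMC substrate read as fluorescence after trypsin release; potency of inhibitors that lower fluorescence and may act on trypsin instead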
[13] = A375 melanoma cell viability loss, dose response, counter-screen for MITF inhibitor project, CellTiter-Glo luminescence, dry powder, set 4 (AID 624364); type: functional, cell-based; conditions: A-375;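 further: A375 melanoma cells are MITF independent so this is a counter screen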
[14] = A375 melanoma cell cytotoxicity, dose response, counter-screen for MITF inhibitor project, CellTiter-Glo luminescence, dry powder, set 2 (AID 624489); type: functional, cell-based; conditions: A-375;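 further: actives are compounds lowering A375 viability meaning general cytotoxicity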
INS1 = assay: beta cell apoptosis inhibitors, cytokine rescue, dose response, luminescence, retest (AID 449756); type: functional, cell-based; conditions: Rattus norvegicus;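 further: cell death triggered by IL-1 beta plus TNF-alpha plus IFN-gamma mixture; protective hits raise ATP signal compared with cytokine alone wells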
[15] = control 3'UTR Renilla luciferase suppression, dose response, counter-screen for Shn3 inhibitor project, cell-based, Clone20-Shn3RL, cherry-picked (AID 624133); type: functional
[16] = HepG2 cell cytotoxicity, dose response, cytotoxicity control for Shn3 inhibitor project, CellTiter-Glo, cherry-picked (AID 624134); type: functional, cell-based
[17] = Shn3 3'UTR reporter inhibitors, dose response, cell-based, Clone20 osteoblasts, firefly luciferase, cherry-picked (AID 624132); type: functional;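 further: firefly luciferase luminescence from reporter carrying the Shn3 3'UTR in osteoblasts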
[18] = cytotoxicity in MIN6 insulinoma cells, dose response, cytotoxicity control, cell-based, mouse insulinoma (AID 2122); type: functional;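 further: confirmatory high-throughput counterscreen run to flag cytotoxic compounds; mouse MIN-6 beta cells carrying an insulin promoter eGFP reporter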
[19] = insulin promoter down-regulators in MIN6 cells, imaging, high-content screening, mouse beta cells (AID 1628); type: functional
[20] = reduction of Shn3 3'UTR firefly luciferase signal, dose response, Schnurri-3 inhibitor project, cell-based, Clone20 osteoblasts, cherry-pick, set 2 (AID 720490); type: functional;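 further: actives lower the luminescence signal as inhibitors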
[21] = Late stage counterscreen for inhibitors of Trypanosoma brucei methionyl tRNA synthetase (MetRS): Luminescence-based cell-based high throughput dose response assay to identify compounds that are cytotoxic to Jurkat human T lymphocyte cells.; type: functional
[22] = biological target: 5-hydroxytryptamine receptor 2A (Mus musculus, UniProt P35363); type: functional, cell-based;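 further: CHO-K1 cells with tagged receptor and beta-arrestin; agonist potency measured as compound-induced activation of the receptor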
Sequence of 5-hydroxytryptamine receptor 2A (P35363 whole entry): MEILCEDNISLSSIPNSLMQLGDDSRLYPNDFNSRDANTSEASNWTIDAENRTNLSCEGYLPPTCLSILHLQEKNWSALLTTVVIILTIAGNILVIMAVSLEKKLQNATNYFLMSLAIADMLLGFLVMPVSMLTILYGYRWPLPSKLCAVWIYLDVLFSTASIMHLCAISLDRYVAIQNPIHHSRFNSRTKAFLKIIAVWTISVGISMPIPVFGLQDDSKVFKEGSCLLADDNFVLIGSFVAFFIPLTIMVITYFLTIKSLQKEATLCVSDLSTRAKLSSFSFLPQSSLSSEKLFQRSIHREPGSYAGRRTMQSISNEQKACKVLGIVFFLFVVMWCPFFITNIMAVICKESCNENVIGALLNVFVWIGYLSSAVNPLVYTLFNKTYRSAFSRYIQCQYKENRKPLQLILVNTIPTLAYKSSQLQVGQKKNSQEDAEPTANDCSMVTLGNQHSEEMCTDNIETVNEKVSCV

Mu-type opioid receptor = Mu-type opioid receptor (Homo sapiens, UniProt P35372); type: functional, cell-based;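 further: U2OS cells with beta-arrestin recruitment to OPRM1 by beta-gal complementation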
Sequence of Mu-type opioid receptor (P35372 whole entry): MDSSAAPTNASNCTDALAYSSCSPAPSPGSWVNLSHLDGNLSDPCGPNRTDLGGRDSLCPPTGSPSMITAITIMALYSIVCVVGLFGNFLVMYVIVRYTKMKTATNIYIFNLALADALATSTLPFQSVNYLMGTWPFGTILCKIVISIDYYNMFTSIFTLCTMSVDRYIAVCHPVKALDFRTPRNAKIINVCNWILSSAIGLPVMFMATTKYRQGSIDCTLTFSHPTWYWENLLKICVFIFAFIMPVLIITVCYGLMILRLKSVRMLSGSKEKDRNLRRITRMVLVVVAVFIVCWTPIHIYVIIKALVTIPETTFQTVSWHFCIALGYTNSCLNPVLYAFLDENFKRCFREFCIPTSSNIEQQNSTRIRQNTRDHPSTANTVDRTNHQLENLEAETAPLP

[23] = biological target: T3, Zinc finger protein mex-5 (Caenorhabditis elegans, UniProt Q9XUB2); assay: MEX-5/TCR-2 RNA interaction inhibitors, dose response, biochemical, C. elegans, fluorescence polarization (AID 1960)
T3 sequence (Q9XUB2 whole entry): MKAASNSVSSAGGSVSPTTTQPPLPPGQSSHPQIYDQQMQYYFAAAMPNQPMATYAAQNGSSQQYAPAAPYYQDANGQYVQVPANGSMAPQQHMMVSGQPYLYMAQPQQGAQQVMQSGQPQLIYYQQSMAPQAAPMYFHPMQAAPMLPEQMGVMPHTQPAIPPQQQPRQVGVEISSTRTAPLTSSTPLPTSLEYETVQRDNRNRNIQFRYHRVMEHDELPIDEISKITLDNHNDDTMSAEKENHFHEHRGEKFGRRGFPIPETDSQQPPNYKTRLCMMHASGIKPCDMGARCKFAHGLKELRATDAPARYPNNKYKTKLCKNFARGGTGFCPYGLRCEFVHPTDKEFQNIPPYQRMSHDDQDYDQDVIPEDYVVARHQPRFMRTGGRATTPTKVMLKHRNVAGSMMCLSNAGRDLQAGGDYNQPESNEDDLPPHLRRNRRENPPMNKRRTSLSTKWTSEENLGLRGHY

[24] = biological target: T4, RNA-binding protein pos-1 (Caenorhabditis elegans, UniProt G5EF15); assay: inhibitors of POS-1/mex-3 RNA binding, dose response, biochemical, fluorescence polarization (AID 1964);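 further: purified POS-1 fused to maltose binding protein made in E. coli; potency of compounds blocking POS-1 binding to fluorescent RNA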
T4 sequence (G5EF15 whole entry): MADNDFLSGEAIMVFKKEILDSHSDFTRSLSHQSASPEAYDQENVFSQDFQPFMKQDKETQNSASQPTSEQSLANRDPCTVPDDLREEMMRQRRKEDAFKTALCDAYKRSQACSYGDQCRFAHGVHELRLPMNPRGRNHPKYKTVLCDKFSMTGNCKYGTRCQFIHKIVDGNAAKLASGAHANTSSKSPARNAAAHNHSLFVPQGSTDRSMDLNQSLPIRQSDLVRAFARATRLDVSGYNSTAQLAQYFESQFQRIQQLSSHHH

[25] = cytotoxicity in OVCAR8 ovarian cancer cells, dose response, PAX8 project, cell-based, plate reader, dry powder samples (AID 743197); type: functional; conditions: OVCAR-8
[26] = inhibitors of PGC1a acetylation in cells, dose response, cell-based, cherry-picked samples (AID 720514); type: functional;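 further: potency may reflect raised or lowered acetylation signal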
[27] = non-specific cell cytotoxicity, dose response, cytotoxicity control for PAX8 inhibitor project, plate reader, dry powder samples (AID 743021); type: functional, cell-based
[28] = HepG2 cell cytotoxicity, dose response, cytotoxicity control, cherry-picked samples (AID 1159577); type: functional, cell-based
[29] = IGROV1 ovarian cancer cell cytotoxicity, dose response, PAX8 inhibitor project, plate reader, dry powder samples (AID 743043); type: functional, cell-based; conditions: IGROV-1
Paired box protein Pax-8 = Paired box protein Pax-8 (Homo sapiens, UniProt Q06710); assay: inhibitors of PAX8-driven TPO luciferase reporter, dose response, RMG-I cells, cherry-pick (AID 687027); type: functional, cell-based;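 further: luciferase reporter driven by Pax8 target thyroperoxidase promoter measured by SteadyGlo luminescence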
Sequence of Paired box protein Pax-8 (Q06710 whole entry): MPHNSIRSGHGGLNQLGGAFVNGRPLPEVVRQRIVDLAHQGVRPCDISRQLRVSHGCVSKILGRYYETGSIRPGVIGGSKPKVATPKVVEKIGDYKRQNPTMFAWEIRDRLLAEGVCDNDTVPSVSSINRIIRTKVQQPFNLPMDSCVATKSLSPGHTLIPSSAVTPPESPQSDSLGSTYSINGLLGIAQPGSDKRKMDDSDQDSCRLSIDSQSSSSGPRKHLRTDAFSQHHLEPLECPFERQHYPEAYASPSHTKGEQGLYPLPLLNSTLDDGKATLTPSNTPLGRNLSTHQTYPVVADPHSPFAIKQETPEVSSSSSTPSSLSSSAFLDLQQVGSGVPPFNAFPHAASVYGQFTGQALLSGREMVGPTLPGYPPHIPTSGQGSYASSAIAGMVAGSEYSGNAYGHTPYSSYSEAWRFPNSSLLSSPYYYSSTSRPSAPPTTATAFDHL

[30] = P. falciparum Dd2 growth inhibitors, dose response, SYBR Green, cherry-picked samples (AID 1159567); type: functional, cell-based
[31] = biological target: C-C chemokine receptor type 6 (Homo sapiens, UniProt P51684); assay: SAR analysis of small molecule antagonists of the CXCR6 receptor using a CCR6 receptor luminescent beta-arrestin counterscreen.; type: functional
[32] = biological target: C-X-C chemokine receptor type 4 (Homo sapiens, UniProt P61073); assay: SAR analysis of small molecule antagonists of the CXCR6 receptor using a CXCR4 receptor luminescent beta-arrestin counterscreen.; type: functional
Sequence of C-X-C chemokine receptor type 4 (P61073 whole entry): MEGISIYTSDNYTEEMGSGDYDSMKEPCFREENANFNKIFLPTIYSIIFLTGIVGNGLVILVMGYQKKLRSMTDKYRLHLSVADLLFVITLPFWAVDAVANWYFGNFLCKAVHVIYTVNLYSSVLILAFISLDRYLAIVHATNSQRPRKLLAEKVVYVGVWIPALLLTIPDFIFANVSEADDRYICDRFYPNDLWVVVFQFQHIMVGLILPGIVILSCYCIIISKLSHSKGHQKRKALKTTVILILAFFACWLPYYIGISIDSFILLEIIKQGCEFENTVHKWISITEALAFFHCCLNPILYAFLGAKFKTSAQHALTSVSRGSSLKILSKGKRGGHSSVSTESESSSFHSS

BJ [33] = assay: cytotoxicity toward BJ-TERT-LT-ST fibroblasts, dose response, cell-based, RAS-independent, luminescence (AID 1935); type: functional; conditions: Homo sapiens;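 further: BJ fibroblasts immortalized with TERT plus LT and ST oncogenes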
[34] = CFTR ΔF508 corrector activity in bronchial cells, dose response, human bronchial epithelial cells, plate reader, cherry-pick, two tests (AID 743267); type: functional, cell-based
[35] = cytotoxicity toward DRD oncogenic fibroblasts, dose response, cell-based, non-viral oncogenic, luminescence (AID 1934); type: functional; conditions: Homo sapiens
BJ [36] = assay: cells; type: functional, cell-based; conditions: Homo sapiens
BJ [37] = assay: cytotoxicity toward BJ-TERT fibroblasts, dose response, cell-based, RAS-independent, luminescence (AID 1933); type: functional; conditions: Homo sapiens
Bcl-2-like protein 10 = biological target: T5, Bcl-2-like protein 10 (Homo sapiens, UniProt Q9HD36); assay: displacers of TR3 peptide from Bcl-B, primary screen, selectivity assay for Bfl-1 inhibitor project, biochemical, fluorescence polarization, FITC-TR3 peptide (AID 748);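 further: fluorescence polarization from a fluorescein-labelled TR3 peptide binding purified Bcl-B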
T5 sequence (Q9HD36 whole entry): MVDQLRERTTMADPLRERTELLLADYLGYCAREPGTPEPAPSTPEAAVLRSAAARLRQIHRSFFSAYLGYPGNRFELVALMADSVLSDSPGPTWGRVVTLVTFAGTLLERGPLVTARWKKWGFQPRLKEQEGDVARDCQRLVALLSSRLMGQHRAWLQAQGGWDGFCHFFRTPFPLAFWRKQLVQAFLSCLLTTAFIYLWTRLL

[38] = biological target: Matrix metalloproteinase-14 (Homo sapiens, UniProt P50281); assay: Dose Response confirmation of uHTS hits for a small molecule inhibitors of MT1-MMP activation in a fluorescence assay set 1.; type: functional
Large T antigen = Large T antigen (Simian virus 40, UniProt P03070); type: functional, Betapolyomavirus macacae;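 further: Confirmatory-stage PubChem screen for compounds that inhibit SV40 T antigen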
Sequence of Large T antigen (P03070 whole entry): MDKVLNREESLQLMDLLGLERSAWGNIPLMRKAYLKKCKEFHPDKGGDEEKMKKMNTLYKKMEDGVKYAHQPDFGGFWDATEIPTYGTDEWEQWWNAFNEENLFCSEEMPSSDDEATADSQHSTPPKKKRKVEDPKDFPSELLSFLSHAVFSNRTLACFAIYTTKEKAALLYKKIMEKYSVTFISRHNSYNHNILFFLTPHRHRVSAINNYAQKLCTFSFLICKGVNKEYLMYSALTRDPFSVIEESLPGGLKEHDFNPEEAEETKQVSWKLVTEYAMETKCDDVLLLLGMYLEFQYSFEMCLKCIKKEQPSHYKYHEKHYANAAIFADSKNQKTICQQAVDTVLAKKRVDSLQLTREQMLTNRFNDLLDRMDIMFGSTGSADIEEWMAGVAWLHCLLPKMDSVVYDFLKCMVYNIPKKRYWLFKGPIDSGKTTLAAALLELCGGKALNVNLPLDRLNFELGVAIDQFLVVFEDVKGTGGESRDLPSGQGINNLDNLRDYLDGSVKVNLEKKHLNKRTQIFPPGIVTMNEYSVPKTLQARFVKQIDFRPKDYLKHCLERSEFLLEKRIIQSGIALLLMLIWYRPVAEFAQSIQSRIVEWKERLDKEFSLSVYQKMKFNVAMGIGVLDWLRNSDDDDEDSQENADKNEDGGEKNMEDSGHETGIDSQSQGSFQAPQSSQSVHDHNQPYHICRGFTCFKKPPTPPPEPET

Sequence of Potassium channel subfamily K member 9 (Q9NPC2 whole entry): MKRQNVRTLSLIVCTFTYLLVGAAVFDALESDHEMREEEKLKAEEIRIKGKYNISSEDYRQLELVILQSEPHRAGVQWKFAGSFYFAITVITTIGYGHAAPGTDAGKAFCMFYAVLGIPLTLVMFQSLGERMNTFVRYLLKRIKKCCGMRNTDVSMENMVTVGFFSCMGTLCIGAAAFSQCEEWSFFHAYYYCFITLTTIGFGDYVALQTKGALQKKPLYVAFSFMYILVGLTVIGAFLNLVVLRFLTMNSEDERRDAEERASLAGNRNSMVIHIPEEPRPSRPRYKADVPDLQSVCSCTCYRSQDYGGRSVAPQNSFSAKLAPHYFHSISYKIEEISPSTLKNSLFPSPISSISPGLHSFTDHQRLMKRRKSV

SMILES: COc1ccccc1NC(=O)c1cccc(NC(=O)CC2CCCC2)c1
- IC50 [1]: 2.63 µM (active)
- IC50 [2]: 0.086 µM (active)

SMILES: COc1ccc(NC(S)=NNC(=O)c2nnn(-c3ccccc3)c2C)cc1
- IC50 [3]: > 122 µM (inactive)
- EC50 [4]: 14.2 µM (active)
- IC50 [5]: > 20 µM (inactive)

SMILES: Cc1ccc(S(=O)(=O)N(C)C[C@@H]2OCCCC[C@@H](C)Oc3ccc(NS(=O)(=O)c4ccc(Cl)cc4)cc3C(=O)N([C@@H](C)CO)C[C@H]2C)cc1
- AC50 [6]: > 30 µM (inactive)

SMILES: Cc1nc2ccc(NC(=O)N3CCCCC3)cc2nc1C
- EC50 (Kallikrein-7): 5.48 µM (active)

SMILES: Cc1cc2ccccc2n1CCNC(=O)Cc1ccccc1
- EC50 [7]: 2.9 µM (active)

SMILES: CCOC(=O)C1(CCOc2ccccc2)CCN(C(=O)OC(C)(C)C)CC1
- AC50 [8]: > 30 µM (inactive)
- AC50 [9]: 44.4 µM (active)

SMILES: C=CCOc1ccccc1CN1CCC(Cc2ccccc2)CC1
- AC50 (Vero): 35 µM (active)

SMILES: CCc1nc(N2CCCCC2C)c2oc3ccccc3c2n1 (configuration not stated)
- AC50 [10]: 49.6 µM (active)
- AC50 [11]: 36.2 µM (active)
- AC50 (HeLa): 11.7 µM (active)
- AC50 (HepG2): 14.2 µM (active)

SMILES: COc1ccc(-c2nnn(CC(=O)N(Cc3ccco3)C(C(=O)NCC3CCCO3)c3ccco3)n2)cc1 (configuration not stated)
- AC50 [12]: > 30 µM (inactive)

SMILES: O=C1C(NS(=O)(=O)c2ccccc2)=C(N2CCOCC2)C(=O)c2ccccc21
- AC50 [13]: > 70 µM (inactive)
- AC50 [14]: > 70 µM (inactive)

SMILES: Oc1ccc(-c2[nH]nc(C(F)(F)F)c2-c2ccccc2)c(O)c1
- AC50 (INS1): 3.81 µM (active)
- AC50 [15]: 2.63 µM (active)
- AC50 [16]: 53.2 µM (active)
- AC50 [17]: 0.283 µM (active)
- IC50 [18]: 0.547 µM (active)
- IC50 [19]: 0.666 µM (active)
- AC50 [20]: 0.473 µM (active)

SMILES: O=C(NCc1nc2ccccc2[nH]1)C1=C[C@@H](c2ccc3c(c2)OCO3)C[C@@H](OCCCCO)O1
- IC50 [21]: > 83.3 µM (inactive)

SMILES: Cc1ccccc1-c1ccc(/C=C2/SC(N3CCOCC3)=NC2=O)o1
- EC50 [22]: 6.39 µM (active)
- EC50 (Mu-type opioid receptor): 92.5 µM (inactive)
- EC50 [23]: 69.6 µM (active)
- EC50 [24]: 26.1 µM (inconclusive)

SMILES: COc1ccc(-c2ccc([C@@H]3[C@@H]4CN(Cc5cc(OC)cc(OC)c5)C[C@H]3N4)cc2)cc1
- AC50 [25]: 23.8 µM (active)
- AC50 [26]: 10.5 µM (active)
- AC50 [27]: 11.8 µM (active)
- AC50 [28]: 6.38 µM (active)
- AC50 [29]: 21.5 µM (active)
- AC50 (Paired box protein Pax-8): 10.1 µM (active)
- AC50 [30]: 2.24 µM (active)

SMILES: COc1ccccc1NC(=O)CN1C2CCCC1CC(NC(=O)c1cc(OC)c(OC)c(OC)c1)C2 (configuration not stated)
- IC50 [31]: > 79 µM (inactive)
- IC50 [32]: > 79 µM (inactive)

SMILES: COc1ccccc1NC1=C(C(N)=O)C(=N)C(C(=O)Nc2cccc(Cl)c2Cl)S1 (configuration not stated)
- EC50 (BJ [33]): 22.3 µM (active)
- AC50 [34]: 6.08 µM (active)
- EC50 [35]: 4.27 µM (active)
- EC50 (BJ [36]): 33.3 µM (inconclusive)
- EC50 (BJ [37]): 14.5 µM (active)

SMILES: C/C(=C/c1oc2ccc(O)cc2c1[N+](=O)[O-])N(C)C
- IC50 (Bcl-2-like protein 10): > 100 µM (inactive)
- IC50 [38]: 13.3 µM (active)
- IC50 (Large T antigen): 9.41 µM (active)
